Experimental data from BigSolDB 2.1.

## O=c1nc[nH]c2[nH]ncc12
In 1,4-dioxane, 283.15 K
  solubility (mole fraction): 2.91e-05
In 1,4-dioxane, 288.15 K
  solubility (mole fraction): 3.71e-05
In 1,4-dioxane, 293.15 K
  solubility (mole fraction): 4.64e-05
In 1,4-dioxane, 298.15 K
  solubility (mole fraction): 5.74e-05
In 1,4-dioxane, 303.15 K
  solubility (mole fraction): 7.03e-05
In 1,4-dioxane, 308.15 K
  solubility (mole fraction): 8.43e-05
In 1,4-dioxane, 313.15 K
  solubility (mole fraction): 0.000102
In 1,4-dioxane, 318.15 K
  solubility (mole fraction): 0.000123
In 1,4-dioxane, 323.15 K
  solubility (mole fraction): 0.000148
In 1,4-dioxane, 328.15 K
  solubility (mole fraction): 0.000178
In 1,4-dioxane, 333.15 K
  solubility (mole fraction): 0.000204
In 2-butanone, 278.15 K
  solubility (mole fraction): 0.000783
In 2-butanone, 283.15 K
  solubility (mole fraction): 0.000954
In 2-butanone, 288.15 K
  solubility (mole fraction): 0.00115
In 2-butanone, 293.15 K
  solubility (mole fraction): 0.00138
In 2-butanone, 298.15 K
  solubility (mole fraction): 0.00165
In 2-butanone, 303.15 K
  solubility (mole fraction): 0.00196
In 2-butanone, 308.15 K
  solubility (mole fraction): 0.00231
In 2-butanone, 313.15 K
  solubility (mole fraction): 0.00271
In 2-butanone, 318.15 K
  solubility (mole fraction): 0.00316
In 2-butanone, 323.15 K
  solubility (mole fraction): 0.00367
In 2-butanone, 328.15 K
  solubility (mole fraction): 0.00425
In 2-butanone, 333.15 K
  solubility (mole fraction): 0.00491
In DMF, 278.15 K
  solubility (mole fraction): 0.00223
In DMF, 283.15 K
  solubility (mole fraction): 0.00266
In DMF, 288.15 K
  solubility (mole fraction): 0.00316
In DMF, 293.15 K
  solubility (mole fraction): 0.00373
In DMF, 298.15 K
  solubility (mole fraction): 0.00437
In DMF, 303.15 K
  solubility (mole fraction): 0.00509
In DMF, 308.15 K
  solubility (mole fraction): 0.00591
In DMF, 313.15 K
  solubility (mole fraction): 0.00683
In DMF, 318.15 K
  solubility (mole fraction): 0.00785
In DMF, 323.15 K
  solubility (mole fraction): 0.00898
In DMF, 328.15 K
  solubility (mole fraction): 0.01
In DMF, 333.15 K
  solubility (mole fraction): 0.0121
In NMP, 278.15 K
  solubility (mole fraction): 0.0151
In NMP, 283.15 K
  solubility (mole fraction): 0.017
In NMP, 288.15 K
  solubility (mole fraction): 0.02
In NMP, 293.15 K
  solubility (mole fraction): 0.022
In NMP, 298.15 K
  solubility (mole fraction): 0.0251
In NMP, 303.15 K
  solubility (mole fraction): 0.0281
In NMP, 308.15 K
  solubility (mole fraction): 0.032
In NMP, 313.15 K
  solubility (mole fraction): 0.035
In NMP, 318.15 K
  solubility (mole fraction): 0.0391
In NMP, 323.15 K
  solubility (mole fraction): 0.0431
In NMP, 328.15 K
  solubility (mole fraction): 0.0481
In NMP, 333.15 K
  solubility (mole fraction): 0.0531
In acetone, 278.15 K
  solubility (mole fraction): 0.000653
In acetone, 283.15 K
  solubility (mole fraction): 0.000797
In acetone, 288.15 K
  solubility (mole fraction): 0.000966
In acetone, 293.15 K
  solubility (mole fraction): 0.00116
In acetone, 298.15 K
  solubility (mole fraction): 0.00139
In acetone, 303.15 K
  solubility (mole fraction): 0.00166
In acetone, 308.15 K
  solubility (mole fraction): 0.00196
In acetone, 313.15 K
  solubility (mole fraction): 0.00231
In acetone, 318.15 K
  solubility (mole fraction): 0.0027
In acetone, 323.15 K
  solubility (mole fraction): 0.00314
In acetone, 328.15 K
  solubility (mole fraction): 0.00365
In acetone, 333.15 K
  solubility (mole fraction): 0.00421
In acetonitrile, 278.15 K
  solubility (mole fraction): 9.6e-05
In acetonitrile, 283.15 K
  solubility (mole fraction): 0.000117
In acetonitrile, 288.15 K
  solubility (mole fraction): 0.000141
In acetonitrile, 293.15 K
  solubility (mole fraction): 0.00017
In acetonitrile, 298.15 K
  solubility (mole fraction): 0.000204
In acetonitrile, 303.15 K
  solubility (mole fraction): 0.000239
In acetonitrile, 308.15 K
  solubility (mole fraction): 0.000286
In acetonitrile, 313.15 K
  solubility (mole fraction): 0.000331
In acetonitrile, 318.15 K
  solubility (mole fraction): 0.000384
In acetonitrile, 323.15 K
  solubility (mole fraction): 0.000448
In acetonitrile, 328.15 K
  solubility (mole fraction): 0.000522
In acetonitrile, 333.15 K
  solubility (mole fraction): 0.00059
In cyclohexane, 283.15 K
  solubility (mole fraction): 4.74e-07
In cyclohexane, 288.15 K
  solubility (mole fraction): 6.38e-07
In cyclohexane, 293.15 K
  solubility (mole fraction): 7.68e-07
In cyclohexane, 298.15 K
  solubility (mole fraction): 1.02e-06
In cyclohexane, 303.15 K
  solubility (mole fraction): 1.24e-06
In cyclohexane, 308.15 K
  solubility (mole fraction): 1.61e-06
In cyclohexane, 313.15 K
  solubility (mole fraction): 1.97e-06
In cyclohexane, 318.15 K
  solubility (mole fraction): 2.48e-06
In cyclohexane, 323.15 K
  solubility (mole fraction): 3.05e-06
In cyclohexane, 328.15 K
  solubility (mole fraction): 3.77e-06
In cyclohexane, 333.15 K
  solubility (mole fraction): 4.37e-06
In ethanol, 278.15 K
  solubility (mole fraction): 2.46e-05
In ethanol, 283.15 K
  solubility (mole fraction): 3.28e-05
In ethanol, 288.15 K
  solubility (mole fraction): 4.27e-05
In ethanol, 293.15 K
  solubility (mole fraction): 5.5e-05
In ethanol, 298.15 K
  solubility (mole fraction): 6.99e-05
In ethanol, 303.15 K
  solubility (mole fraction): 8.97e-05
In ethanol, 308.15 K
  solubility (mole fraction): 0.000109
In ethanol, 313.15 K
  solubility (mole fraction): 0.000139
In ethanol, 318.15 K
  solubility (mole fraction): 0.000172
In ethanol, 323.15 K
  solubility (mole fraction): 0.000211
In ethanol, 328.15 K
  solubility (mole fraction): 0.000258
In ethanol, 333.15 K
  solubility (mole fraction): 0.00031
In isopropanol, 278.15 K
  solubility (mole fraction): 3.64e-05
In isopropanol, 283.15 K
  solubility (mole fraction): 4.68e-05
In isopropanol, 288.15 K
  solubility (mole fraction): 5.84e-05
In isopropanol, 293.15 K
  solubility (mole fraction): 7.35e-05
In isopropanol, 298.15 K
  solubility (mole fraction): 9.2e-05
In isopropanol, 303.15 K
  solubility (mole fraction): 0.000112
In isopropanol, 308.15 K
  solubility (mole fraction): 0.000138
In isopropanol, 313.15 K
  solubility (mole fraction): 0.000171
In isopropanol, 318.15 K
  solubility (mole fraction): 0.000204
In isopropanol, 323.15 K
  solubility (mole fraction): 0.000245
In isopropanol, 328.15 K
  solubility (mole fraction): 0.000296
In isopropanol, 333.15 K
  solubility (mole fraction): 0.000346
In methanol, 278.15 K
  solubility (mole fraction): 2.05e-05
In methanol, 283.15 K
  solubility (mole fraction): 2.7e-05
In methanol, 288.15 K
  solubility (mole fraction): 3.61e-05
In methanol, 293.15 K
  solubility (mole fraction): 4.65e-05
In methanol, 298.15 K
  solubility (mole fraction): 5.97e-05
In methanol, 303.15 K
  solubility (mole fraction): 7.6e-05
In methanol, 308.15 K
  solubility (mole fraction): 9.62e-05
In methanol, 313.15 K
  solubility (mole fraction): 0.00012
In methanol, 318.15 K
  solubility (mole fraction): 0.000152
In methanol, 323.15 K
  solubility (mole fraction): 0.000189
In methanol, 328.15 K
  solubility (mole fraction): 0.000235
In methanol, 333.15 K
  solubility (mole fraction): 0.000283
In n-butanol, 278.15 K
  solubility (mole fraction): 6.63e-05
In n-butanol, 283.15 K
  solubility (mole fraction): 8.13e-05
In n-butanol, 288.15 K
  solubility (mole fraction): 0.0001
In n-butanol, 293.15 K
  solubility (mole fraction): 0.000124
In n-butanol, 298.15 K
  solubility (mole fraction): 0.000151
In n-butanol, 303.15 K
  solubility (mole fraction): 0.000184
In n-butanol, 308.15 K
  solubility (mole fraction): 0.000219
In n-butanol, 313.15 K
  solubility (mole fraction): 0.00026
In n-butanol, 318.15 K
  solubility (mole fraction): 0.000312
In n-butanol, 323.15 K
  solubility (mole fraction): 0.000366
In n-butanol, 328.15 K
  solubility (mole fraction): 0.000429
In n-butanol, 333.15 K
  solubility (mole fraction): 0.000496
In n-heptanol, 278.15 K
  solubility (mole fraction): 0.000127
In n-heptanol, 283.15 K
  solubility (mole fraction): 0.000149
In n-heptanol, 288.15 K
  solubility (mole fraction): 0.000175
In n-heptanol, 293.15 K
  solubility (mole fraction): 0.000205
In n-heptanol, 298.15 K
  solubility (mole fraction): 0.000239
In n-heptanol, 303.15 K
  solubility (mole fraction): 0.000276
In n-heptanol, 308.15 K
  solubility (mole fraction): 0.000318
In n-heptanol, 313.15 K
  solubility (mole fraction): 0.000365
In n-heptanol, 318.15 K
  solubility (mole fraction): 0.000418
In n-heptanol, 323.15 K
  solubility (mole fraction): 0.000473
In n-heptanol, 328.15 K
  solubility (mole fraction): 0.000544
In n-heptanol, 333.15 K
  solubility (mole fraction): 0.000614
In n-hexanol, 278.15 K
  solubility (mole fraction): 8.05e-05
In n-hexanol, 283.15 K
  solubility (mole fraction): 9.84e-05
In n-hexanol, 288.15 K
  solubility (mole fraction): 0.000119
In n-hexanol, 293.15 K
  solubility (mole fraction): 0.000145
In n-hexanol, 298.15 K
  solubility (mole fraction): 0.000177
In n-hexanol, 303.15 K
  solubility (mole fraction): 0.000214
In n-hexanol, 308.15 K
  solubility (mole fraction): 0.000259
In n-hexanol, 313.15 K
  solubility (mole fraction): 0.000302
In n-hexanol, 318.15 K
  solubility (mole fraction): 0.00036
In n-hexanol, 323.15 K
  solubility (mole fraction): 0.00042
In n-hexanol, 328.15 K
  solubility (mole fraction): 0.000499
In n-hexanol, 333.15 K
  solubility (mole fraction): 0.000566
In n-propanol, 278.15 K
  solubility (mole fraction): 4.85e-05
In n-propanol, 283.15 K
  solubility (mole fraction): 6.16e-05
In n-propanol, 288.15 K
  solubility (mole fraction): 7.66e-05
In n-propanol, 293.15 K
  solubility (mole fraction): 9.52e-05
In n-propanol, 298.15 K
  solubility (mole fraction): 0.000114
In n-propanol, 303.15 K
  solubility (mole fraction): 0.00014
In n-propanol, 308.15 K
  solubility (mole fraction): 0.000164
In n-propanol, 313.15 K
  solubility (mole fraction): 0.000201
In n-propanol, 318.15 K
  solubility (mole fraction): 0.000247
In n-propanol, 323.15 K
  solubility (mole fraction): 0.000293
In n-propanol, 328.15 K
  solubility (mole fraction): 0.000349
In n-propanol, 333.15 K
  solubility (mole fraction): 0.000403
In water, 278.15 K
  solubility (mole fraction): 8.71e-06
In water, 283.15 K
  solubility (mole fraction): 1.18e-05
In water, 288.15 K
  solubility (mole fraction): 1.57e-05
In water, 293.15 K
  solubility (mole fraction): 2.12e-05
In water, 298.15 K
  solubility (mole fraction): 2.94e-05
In water, 303.15 K
  solubility (mole fraction): 3.83e-05
In water, 308.15 K
  solubility (mole fraction): 5.01e-05
In water, 313.15 K
  solubility (mole fraction): 6.44e-05
In water, 318.15 K
  solubility (mole fraction): 8.32e-05
In water, 323.15 K
  solubility (mole fraction): 0.000107
In water, 328.15 K
  solubility (mole fraction): 0.000134
In water, 333.15 K
  solubility (mole fraction): 0.000167
